In patent publication US11395857B2, “Radiolabeled melanocortin 1 receptor-specific alpha-melanocyte-stimulating hormone analogues for imaging or therapy” (PROVINCIAL HEALTH SERVICES AUTHORITY, priority 2018, dated 2022):
Like-named read-outs stand apart in the source and are kept apart here.

Key:
[1] = Biodistribution of 177Lu-labeled αMSH analogues in mice bearing B16F10 mouse melanoma; assay type: in vivo, C57BL/6J mice; conditions: mouse, iv, total radioactivity, C57BL/6J mice, B16F10 melanoma
Description: (§1) The B16-F10 mouse melanoma cells were cultured and inoculated in mice as described in Example 1.
(§2) For biodistribution studies, approximately 1-2 MBq of ^177Lu-labeled αMSH analogues via tail vein under anesthesia. At 1, 4, 24, and 120 h p.i., the mice were euthanized by CO2 inhalation. Organs/tissues were harvested and the radioactivity was measured as described in Example 1.

[2] = tested on: B16F10 mouse melanoma; experiment: as above; assay type: in vivo, C57BL/6J mice; conditions: C57BL/6J mice, B16F10 melanoma
Description: as §1, §2

tissue uptake at 1 h ([1]; male, seminal glands, 1 h p.i., read-out: Biodistribution, Seminal glands): 0.22 ± 0.35 %ID/g | tissue uptake at 4 h ([1]; male, seminal glands, 4 h p.i., read-out: Biodistribution, Seminal glands): 0.02 %ID/g | tissue uptake at 24 h ([1]; male, seminal glands, 24 h p.i., read-out: Biodistribution, Seminal glands): 0.01 %ID/g | tissue uptake at 120 h ([1]; male, seminal glands, 120 h p.i., read-out: Biodistribution, Seminal glands): 0.01 ± 0.01 %ID/g | tissue uptake at 1 h ([1]; male, testes, 1 h p.i., read-out: Biodistribution, Testes): 0.17 ± 0.06 %ID/g | tissue uptake at 4 h ([1]; male, testes, 4 h p.i., read-out: Biodistribution, Testes): 0.04 %ID/g | tissue uptake at 24 h ([1]; male, testes, 24 h p.i., read-out: Biodistribution, Testes): 0.03 %ID/g | tissue uptake at 120 h ([1]; male, testes, 120 h p.i., read-out: Biodistribution, Testes): 0.02 %ID/g | tissue uptake at 1 h ([1]; adrenal glands, 1 h p.i., read-out: Biodistribution, Adrenal glands): 0.54 ± 0.28 %ID/g | tissue uptake at 4 h ([1]; adrenal glands, 4 h p.i., read-out: Biodistribution, Adrenal glands): 0.13 ± 0.06 %ID/g | tissue uptake at 24 h ([1]; adrenal glands, 24 h p.i., read-out: Biodistribution, Adrenal glands): 0.23 ± 0.18 %ID/g | tissue uptake at 120 h ([1]; adrenal glands, 120 h p.i., read-out: Biodistribution, Adrenal glands): 0.02 ± 0.02 %ID/g | tissue uptake at 1 h ([1]; blood, 1 h p.i., read-out: Biodistribution, Blood): 0.49 ± 0.22 %ID/g | tissue uptake at 4 h ([1]; blood, 4 h p.i., read-out: Biodistribution, Blood): 0.02 %ID/g | tissue uptake at 24 h ([1]; blood, 24 h p.i., read-out: Biodistribution, Blood): 0.01 %ID/g | tissue uptake at 1 h ([1]; bone, 1 h p.i., read-out: Biodistribution, Bone): 0.18 ± 0.04 %ID/g | tissue uptake at 4 h ([1]; bone, 4 h p.i., read-out: Biodistribution, Bone): 0.07 ± 0.02 %ID/g | tissue uptake at 24 h ([1]; bone, 24 h p.i., read-out: Biodistribution, Bone): 0.06 ± 0.01 %ID/g | tissue uptake at 120 h ([1]; bone, 120 h p.i., read-out: Biodistribution, Bone): 0.04 ± 0.01 %ID/g | tissue uptake at 1 h ([1]; brain, 1 h p.i., read-out: Biodistribution, Brain): 0.02 %ID/g | tissue uptake at 4 h ([1]; brain, 4 h p.i., read-out: Biodistribution, Brain): 0.01 %ID/g | tissue uptake at 24 h ([1]; brain, 24 h p.i., read-out: Biodistribution, Brain): 0.01 %ID/g | tissue uptake at 1 h ([1]; fat, 1 h p.i., read-out: Biodistribution, Fat): 0.05 ± 0.02 %ID/g | tissue uptake at 4 h ([1]; fat, 4 h p.i., read-out: Biodistribution, Fat): 0.01 ± 0.01 %ID/g | tissue uptake at 24 h ([1]; fat, 24 h p.i., read-out: Biodistribution, Fat): 0.01 %ID/g | tissue uptake at 1 h ([1]; heart, 1 h p.i., read-out: Biodistribution, Heart): 0.19 ± 0.07 %ID/g | tissue uptake at 4 h ([1]; heart, 4 h p.i., read-out: Biodistribution, Heart): 0.03 %ID/g | tissue uptake at 24 h ([1]; heart, 24 h p.i., read-out: Biodistribution, Heart): 0.02 %ID/g | tissue uptake at 120 h ([1]; heart, 120 h p.i., read-out: Biodistribution, Heart): 0.01 %ID/g | tissue uptake at 1 h ([1]; intestine, 1 h p.i., read-out: Biodistribution, Intestine): 0.45 ± 0.2 %ID/g | tissue uptake at 4 h ([1]; intestine, 4 h p.i., read-out: Biodistribution, Intestine): 0.11 ± 0.06 %ID/g | tissue uptake at 24 h ([1]; intestine, 24 h p.i., read-out: Biodistribution, Intestine): 0.13 ± 0.04 %ID/g | tissue uptake at 120 h ([1]; intestine, 120 h p.i., read-out: Biodistribution, Intestine): 0.06 ± 0.07 %ID/g | tissue uptake at 1 h ([1]; kidneys, 1 h p.i., read-out: Biodistribution, Kidneys): 4.79 ± 0.92 %ID/g | tissue uptake at 4 h ([1]; kidneys, 4 h p.i., read-out: Biodistribution, Kidneys): 3.31 ± 0.66 %ID/g | tissue uptake at 24 h ([1]; kidneys, 24 h p.i., read-out: Biodistribution, Kidneys): 1.24 ± 0.46 %ID/g | tissue uptake at 120 h ([1]; kidneys, 120 h p.i., read-out: Biodistribution, Kidneys): 0.36 ± 0.05 %ID/g | tissue uptake at 1 h ([1]; liver, 1 h p.i., read-out: Biodistribution, Liver): 0.88 ± 0.16 %ID/g | tissue uptake at 4 h ([1]; liver, 4 h p.i., read-out: Biodistribution, Liver): 0.81 ± 0.08 %ID/g | tissue uptake at 24 h ([1]; liver, 24 h p.i., read-out: Biodistribution, Liver): 0.58 ± 0.14 %ID/g | tissue uptake at 120 h ([1]; liver, 120 h p.i., read-out: Biodistribution, Liver): 0.34 ± 0.03 %ID/g | tissue uptake at 1 h ([1]; lungs, 1 h p.i., read-out: Biodistribution, Lungs): 0.6 ± 0.19 %ID/g | tissue uptake at 4 h ([1]; lungs, 4 h p.i., read-out: Biodistribution, Lungs): 0.14 ± 0.04 %ID/g | tissue uptake at 24 h ([1]; lungs, 24 h p.i., read-out: Biodistribution, Lungs): 0.06 ± 0.02 %ID/g | tissue uptake at 120 h ([1]; lungs, 120 h p.i., read-out: Biodistribution, Lungs): 0.01 ± 0.01 %ID/g | tissue uptake at 1 h ([1]; muscle, 1 h p.i., read-out: Biodistribution, Muscle): 0.12 ± 0.05 %ID/g | tissue uptake at 4 h ([1]; muscle, 4 h p.i., read-out: Biodistribution, Muscle): 0.02 ± 0.01 %ID/g | tissue uptake at 24 h ([1]; muscle, 24 h p.i., read-out: Biodistribution, Muscle): 0.01 ± 0.01 %ID/g | tissue uptake at 1 h ([1]; pancreas, 1 h p.i., read-out: Biodistribution, Pancreas): 0.15 ± 0.05 %ID/g | tissue uptake at 4 h ([1]; pancreas, 4 h p.i., read-out: Biodistribution, Pancreas): 0.03 %ID/g | tissue uptake at 24 h ([1]; pancreas, 24 h p.i., read-out: Biodistribution, Pancreas): 0.03 ± 0.01 %ID/g | tissue uptake at 120 h ([1]; pancreas, 120 h p.i., read-out: Biodistribution, Pancreas): 0.01 %ID/g | tissue uptake at 1 h ([1]; spleen, 1 h p.i., read-out: Biodistribution, Spleen): 0.38 ± 0.11 %ID/g | tissue uptake at 4 h ([1]; spleen, 4 h p.i., read-out: Biodistribution, Spleen): 0.24 ± 0.03 %ID/g | tissue uptake at 24 h ([1]; spleen, 24 h p.i., read-out: Biodistribution, Spleen): 0.2 ± 0.04 %ID/g | tissue uptake at 120 h ([1]; spleen, 120 h p.i., read-out: Biodistribution, Spleen): 0.11 ± 0.01 %ID/g | tissue uptake at 1 h ([1]; stomach, 1 h p.i., read-out: Biodistribution, Stomach): 0.36 ± 0.22 %ID/g | tissue uptake at 4 h ([1]; stomach, 4 h p.i., read-out: Biodistribution, Stomach): 0.11 ± 0.02 %ID/g | tissue uptake at 24 h ([1]; stomach, 24 h p.i., read-out: Biodistribution, Stomach): 0.42 ± 0.18 %ID/g | tissue uptake at 120 h ([1]; stomach, 120 h p.i., read-out: Biodistribution, Stomach): 0.1 ± 0.08 %ID/g | tissue uptake at 1 h ([1]; thyroid, 1 h p.i., read-out: Biodistribution, Thyroid): 0.43 ± 0.11 %ID/g | tissue uptake at 4 h ([1]; thyroid, 4 h p.i., read-out: Biodistribution, Thyroid): 0.27 ± 0.06 %ID/g | tissue uptake at 24 h ([1]; thyroid, 24 h p.i., read-out: Biodistribution, Thyroid): 0.17 ± 0.01 %ID/g | tissue uptake at 120 h ([1]; thyroid, 120 h p.i., read-out: Biodistribution, Thyroid): 0.05 ± 0.02 %ID/g | tissue to tissue ratio at 1 h ([1]; tumour/blood, 1 h p.i., read-out: Tumour/blood): 19.2 ± 8.25 | tissue to tissue ratio at 4 h ([1]; tumour/blood, 4 h p.i., read-out: Tumour/blood): 414 ± 59 | tissue to tissue ratio at 24 h ([1]; tumour/blood, 24 h p.i., read-out: Tumour/blood): 652 ± 101 | tissue to tissue ratio at 120 h ([1]; tumour/blood, 120 h p.i., read-out: Tumour/blood): 466 ± 382 | tissue to tissue ratio at 1 h ([1]; tumour/kidney, 1 h p.i., read-out: Tumour/kidney): 1.75 ± 0.47 | tissue to tissue ratio at 4 h ([1]; tumour/kidney, 4 h p.i., read-out: Tumour/kidney): 2.46 ± 0.87 | tissue to tissue ratio at 24 h ([1]; tumour/kidney, 24 h p.i., read-out: Tumour/kidney): 3.08 ± 1.05 | tissue to tissue ratio at 120 h ([1]; tumour/kidney, 120 h p.i., read-out: Tumour/kidney): 1.44 ± 1.14 | tissue to tissue ratio at 1 h ([1]; tumour/muscle, 1 h p.i., read-out: Tumour/muscle): 75 ± 29.8 | tissue to tissue ratio at 4 h ([1]; tumour/muscle, 4 h p.i., read-out: Tumour/muscle): 452 ± 158 | tissue to tissue ratio at 24 h ([1]; tumour/muscle, 24 h p.i., read-out: Tumour/muscle): 320 ± 91.8 | tissue to tissue ratio at 120 h ([1]; tumour/muscle, 120 h p.i., read-out: Tumour/muscle): 117 ± 92.2 | excreta dose per gram or mL at 1 h ([1]; urine, 1 h p.i.): 222 ± 81.1 %ID/g | excreta dose per gram or mL at 4 h ([1]; urine, 4 h p.i.): 19.3 ± 4.21 %ID/g | excreta dose per gram or mL at 24 h ([1]; urine, 24 h p.i.): 0.94 ± 0.48 %ID/g | excreta dose per gram or mL at 120 h ([1]; urine, 120 h p.i.): 0.15 ± 0.07 %ID/g | Biodistribution, B16F10 tumour ([2]; 1 h p.i.): 8.25 ± 1.94 % ID/g | Biodistribution, B16F10 tumour ([2]; 4 h p.i.): 7.81 ± 2.16 % ID/g | Biodistribution, B16F10 tumour ([2]; 24 h p.i.): 3.45 ± 0.30 % ID/g | Biodistribution, B16F10 tumour ([2]; 120 h p.i.): 0.49 ± 0.36 % ID/g | Biodistribution, Blood ([2]; 120 h p.i.): 0.00 ± 0.00 % ID/g | Biodistribution, Brain ([2]; 120 h p.i.): 0.00 ± 0.00 % ID/g | Biodistribution, Fat ([2]; 120 h p.i.): 0.00 ± 0.00 % ID/g | Biodistribution, Muscle ([2]; 120 h p.i.): 0.00 ± 0.00 % ID/g
Structure (SMILES): CCCC[C@H](NC(=O)CN1CCC(NC(=O)CN2CCN(CC(=O)O)CCN(CC(=O)O)CCN(CC(=O)O)CC2)CC1)C(=O)N[C@H]1CC(=O)NCCCC[C@@H](C(N)=O)N(C)C(=O)[C@H](Cc2c[nH]c3ccccc23)NC(=O)[C@H](CCCNC(=N)N)N(C)C(=O)[C@@H](Cc2ccccc2)NC(=O)[C@H](Cc2c[nH]cn2)NC1=O [^177Lu-labeled CCZ01106, metal not drawn]
